Measurements published in patent US9115143B2, “Substituted indole derivatives as gamma secretase modulators” (Janssen Pharmaceuticals, Inc., priority 2011, dated 2015).

Tests used:
[1] = system: Aβtotal; experiment: Screening for γ-secretase-modulating activity: Aβtotal in supernatant of SKNBE2 cells carrying hAPP 695 wild type (Alphalisa); format: cell-based, human; settings: overnight incubation, Alphalisa on supernatant
How it was run: (§1)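 Secreted Aβ42 (C-terminal/N-terminal antibody pair) and Aβtotal (N-terminal/mid-region pair) were quantified by AlphaLISA after overnight compound exposure of wild-type hAPP 695 SKNBE2 cells at 37 °C. Values expressed relative to compound-free maximum, with IC50 from nonlinear 4-parameter regression.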

[2] = system: Aβ42; experiment: Screening for γ-secretase-modulating activity: Aβ42 in supernatant of SKNBE2 cells carrying hAPP 695 wild type (Alphalisa); format: cell-based, human; settings: overnight incubation, Alphalisa on supernatant
How it was run: as §1

[3] = SKNBE2 human neuroblastoma cells carrying hAPP 695 wild type
[4] = Homo sapiens, SKNBE2, SKNBE2 human neuroblastoma cells carrying hAPP 695 wild type

| SMILES | melting point [°C] | IC50 [1, 3] [nM] | IC50 [2, 3] [nM] | IC50 [1, 4] [nM] | IC50 [2, 4] [nM] |
| --- | --- | --- | --- | --- | --- |
| COc1c(C#N)ccc2[nH]c(-c3cn4c(n3)C(c3ccccc3Cl)OCC4)cc12 (stereo not drawn) [Compound 51, 2-[8-(2-chlorophenyl)-5,6-dihydro-8H-imidazo[2,1-c][1,4]oxazin-2-yl]-4-methoxy-1H-indole-5-carbonitrile] | 255.6 | > 10000 | 708 |  |  |
| COc1c(C#N)ccc2[nH]c(-c3nc4n(n3)CCCC4(O)c3ccc(F)cc3C)cc12 (stereo not drawn) [Compound 60, 2-[8-(4-fluoro-2-methylphenyl)-5,6,7,8-tetrahydro-8-hydroxy[1,2,4]triazolo[1,5-a]pyridin-2-yl]-4-methoxy-1H-indole-5-carbonitrile] | 287.1 |  |  | > 10000 | 138 |
| N#Cc1ccc2cc(-c3nc4n(n3)CCCC4c3ccccc3C(F)(F)F)[nH]c2c1 (stereo not drawn) [Compound 61, 2-[5,6,7,8-tetrahydro-8-[2-(trifluoromethyl)phenyl][1,2,4]triazolo[1,5-a]pyridin-2-yl]-1H-indole-6-carbonitrile] | 175.7 |  |  | > 10000 | 3980 |
| N#Cc1ccc2[nH]c(-c3nc4n(n3)CCCC4c3ccccc3Cl)cc2c1 (stereo not drawn) [Compound 62, 2-[8-(2-chlorophenyl)-5,6,7,8-tetrahydro[1,2,4]triazolo[1,5-a]pyridin-2-yl]-1H-indole-5-carbonitrile] | 208.6 |  |  | > 10000 | 245 |
| COc1ccccc1C1CCCn2cc(-c3cc4cc(C#N)ccc4[nH]3)nc21 (stereo not drawn) [Compound 67, 2-[5,6,7,8-tetrahydro-8-(2-methoxyphenyl)imidazo[1,2-a]pyridin-2-yl]-1H-indole-5-carbonitrile] | 251 |  |  | > 10000 | 501 |
| Cc1cc(F)ccc1C1CCCn2cc(-c3cc4cc(C#N)ncc4[nH]3)nc21 (stereo not drawn) [Compound 72, 2-[8-(4-fluoro-2-methylphenyl)-5,6,7,8-tetrahydroimidazo[1,2-a]pyridin-2-yl]-1H-pyrrolo[2,3-c]pyridine-5-carbonitrile] | 255.5 |  |  | > 10000 | 126 |
| Cc1cn(-c2ccc3[nH]c(-c4nc5n(n4)CCOC5c4ccc(F)cc4C(C)C)cc3c2)cn1 (stereo not drawn) [Compound 100, 8-[4-fluoro-2-(1-methylethyl)phenyl]-5,6-dihydro-2-[5-(4-methyl-1H-imidazol-1-yl)-1H-indol-2-yl]-8H-[1,2,4]triazolo[5,1-c][1,4]oxazine] | 297.5 |  |  | > 10000 | 48 |
| Cc1cc(-c2ccc3[nH]c(-c4cn5c(n4)C(c4ccc(F)cc4C)OCC5)cc3c2)ccn1 (stereo not drawn) [Compound 103, 8-(4-fluoro-2-methylphenyl)-5,6-dihydro-2-[5-(2-methyl-4-pyridinyl)-1H-indol-2-yl]-8H-imidazo[2,1-c][1,4]oxazine] | 191.8 |  |  | > 10000 | 26 |
| CCc1cc(F)ccc1C1OCCn2nc(-c3cc4cc(-n5cnc(C)c5)ccc4[nH]3)nc21 (stereo not drawn) [Compound 105, 8-(2-ethyl-4-fluorophenyl)-5,6-dihydro-2-[5-(4-methyl-1H-imidazol-1-yl)-1H-indol-2-yl]-8H-[1,2,4]triazolo[5,1-c][1,4]oxazine] | 285.7 |  |  | > 10000 | 34 |
| Cc1cc(F)ccc1C1OCCn2nc(-c3cc4nc(-c5cnn(C)c5)ccc4[nH]3)nc21 (stereo not drawn) [Compound 106, 8-(4-fluoro-2-methylphenyl)-5,6-dihydro-2-[5-(1-methyl-1H-pyrazol-4-yl)-1H-pyrrolo[3,2-b]pyridin-2-yl]-8H-[1,2,4]triazolo[5,1-c][1,4]oxazine] | 263.8 |  |  | > 10000 | 447 |
| COc1c(C#N)ccc2[nH]c(-c3nc4n(n3)CCOC4c3ccc(F)cc3C)cc12 (stereo not drawn) [Compound 115, 2-[8-(4-fluoro-2-methylphenyl)-5,6-dihydro-8H-[1,2,4]triazolo[5,1-c][1,4]oxazin-2-yl]-4-methoxy-1H-indole-5-carbonitrile] | 257.4 | > 10000 | 1480 |  |  |
| Cc1cn(-c2ccc3[nH]c(-c4nc5n(n4)CCOC5c4cc(F)c(F)c(C)c4C)cc3c2)cn1 (stereo not drawn) [Compound 116, 8-(4,5-difluoro-2,3-dimethylphenyl)-5,6-dihydro-2-[5-(4-methyl-1H-imidazol-1-yl)-1H-indol-2-yl]-8H-[1,2,4]triazolo[5,1-c][1,4]oxazine] | 285.1 |  |  | > 10000 | 33 |
| COc1c(C#N)ccc2[nH]c(-c3nc4n(n3)CCOC4c3ccccc3Cl)cc12 (stereo not drawn) [Compound 137, 2-[8-(2-chlorophenyl)-5,6-dihydro-8H-[1,2,4]triazolo[5,1-c][1,4]oxazin-2-yl]-4-methoxy-1H-indole-5-carbonitrile] | 197.5 | > 10000 | 49 |  |  |
| COc1c(C#N)ccc2[nH]c(-c3cn4c(n3)C(c3c(C)cccc3F)OCC4)cc12 (stereo not drawn) [Compound 139, 2-[8-(2-fluoro-6-methylphenyl)-5,6-dihydro-8H-imidazo[2,1-c][1,4]oxazin-2-yl]-4-methoxy-1H-indole-5-carbonitrile] | 296.2 | > 10000 | 1620 |  |  |
| COc1c(C#N)ccc2[nH]c(-c3nc4n(n3)CCOC4c3c(C)cccc3F)cc12 (stereo not drawn) [Compound 141, 2-[8-(2-fluoro-6-methylphenyl)-5,6-dihydro-8H-[1,2,4]triazolo[5,1-c][1,4]oxazin-2-yl]-4-methoxy-1H-indole-5-carbonitrile] | 244.4 | > 10000 | 28 |  |  |
| COc1c(C#N)ccc2[nH]c(-c3nc4n(n3)CCOC4c3c(C)cccc3F)cc12 (stereo not drawn) [Compound 142, 2-[8-(2-fluoro-6-methylphenyl)-5,6-dihydro-8H-[1,2,4]triazolo[5,1-c][1,4]oxazin-2-yl]-4-methoxy-1H-indole-5-carbonitrile] | 244.8 | > 10000 | 2820 |  |  |
| COc1c(C#N)ccc2[nH]c(-c3nc4n(n3)CCOC4c3cccc(F)c3C)cc12 (stereo not drawn) [Compound 150, 2-[8-(3-fluoro-2-methylphenyl)-5,6-dihydro-8H-[1,2,4]triazolo[5,1-c][1,4]oxazin-2-yl]-4-methoxy-1H-indole-5-carbonitrile] | 238.2 | > 10000 | 2190 |  |  |
| COc1c(C#N)ccc2[nH]c(-c3nc4n(n3)CCOC4c3ccc(F)c(Cl)c3)cc12 (stereo not drawn) [Compound 156, 2-[8-(3-chloro-4-fluorophenyl)-5,6-dihydro-8H-[1,2,4]triazolo[5,1-c][1,4]oxazin-2-yl]-4-methoxy-1H-indole-5-carbonitrile] | 267.3 | > 10000 | 85 |  |  |
| COc1c(C#N)ccc2[nH]c(-c3nc4n(n3)CCOC4c3ccc(F)c(Cl)c3)cc12 (stereo not drawn) [Compound 157, 2-[8-(3-chloro-4-fluorophenyl)-5,6-dihydro-8H-[1,2,4]triazolo[5,1-c][1,4]oxazin-2-yl]-4-methoxy-1H-indole-5-carbonitrile] | 265.5 | > 10000 | 7590 |  |  |
| COc1c(C#N)ccc2[nH]c(-c3cn4c(n3)C(c3cc(F)ccc3C)OCC4)cc12 (stereo not drawn) [Compound 159, 2-[8-(5-fluoro-2-methylphenyl)-5,6-dihydro-8H-imidazo[2,1-c][1,4]oxazin-2-yl]-4-methoxy-1H-indole-5-carbonitrile] | 277.1 | > 10000 | 676 |  |  |
| COc1c(C#N)ccc2[nH]c(-c3cn4c(n3)C(c3ccccc3C3CC3)OCC4)cc12 (stereo not drawn) [Compound 169, 2-[8-(2-cyclopropylphenyl)-5,6-dihydro-8H-imidazo[2,1-c][1,4]oxazin-2-yl]-4-methoxy-1H-indole-5-carbonitrile] | 270.8 | > 10000 | 759 |  |  |
| COc1c(C#N)ccc2[nH]c(-c3cn4c(n3)C(c3ccccc3C3CC3)OCC4)cc12 (stereo not drawn) [Compound 170, 2-[8-(2-cyclopropylphenyl)-5,6-dihydro-8H-imidazo[2,1-c][1,4]oxazin-2-yl]-4-methoxy-1H-indole-5-carbonitrile] | 269.8 |  | 11 | > 10000 |  |
